{"source": "patent US8546085B2", "about": "“Methods of identifying modulators of the bitter taste receptor TAS2R44” (Givaudan SA, priority 2008, dated 2013)", "format_in_all_cases": "cell-based", "key": {"[1]": {"molecular_target": "T1, TAS2R44 (Homo sapiens, UniProt P59538, L162M)", "T1 construct": "The full length gene of human TAS2R44 was amplified by polymerase chain reaction (PCR) using gene-specific primers that span the entire coding region; RSS tag (first 45 amino acids of rat somatostatin receptor subtype 3, plus EcoRI site) (N); expressed in transfected cells; host or cells: HEK293T/Galpha16-gustducin 44 cells, stably transfected with pcDNA3.1Zeo-TAS2R44", "T1 sequence (P59538 with tags, fused parts or gaps L162M)": "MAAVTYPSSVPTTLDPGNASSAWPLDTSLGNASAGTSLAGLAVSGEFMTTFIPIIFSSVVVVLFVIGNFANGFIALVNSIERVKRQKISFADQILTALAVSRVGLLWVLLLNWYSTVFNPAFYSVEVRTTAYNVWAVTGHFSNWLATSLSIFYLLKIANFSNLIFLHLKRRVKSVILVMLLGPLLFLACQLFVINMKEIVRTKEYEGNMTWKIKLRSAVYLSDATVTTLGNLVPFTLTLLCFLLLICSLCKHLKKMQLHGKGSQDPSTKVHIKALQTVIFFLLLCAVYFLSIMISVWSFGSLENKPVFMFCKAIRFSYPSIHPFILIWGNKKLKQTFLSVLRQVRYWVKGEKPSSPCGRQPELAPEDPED", "assay": "Fluo-4 calcium assay, activation of TAS2R44 by agonists", "details": "for EC50: HEK293T cells stably expressing Gα16-gustducin44 and TAS2R44, nonlinear regression, read-out: calculated EC50 value for TAS2R44; for calcium signaling upon addition: cells stably expressing human TAS2R44", "description": "Fluo-4AM (Invitrogen, Carlsbad, Calif., US) is a fluorescent indicator of intracellular calcium dynamics (change in concentration) and allows monitoring changes in the calcium concentration, particularly an increase in response to receptor activation occurring after agonist exposure.\nAt day 0, the HEK293T cell line expressing Gα16-gustducin44 and a TAS2R bitter taste receptor formed as described in examples 2b or 2c was seeded in antibiotic-free growth medium (standard DMEM with 10% (v/v) heat-inactivated fetal bovine serum, 2 mM L-glutamine[…]) into black wall/clear bottom 96-well plates, coated with poly(ethylenimine) (0.005% v/v) at a concentration of 15,000 cells per well and incubated for 48 hours in humidified atmosphere (37° C., 5% CO2).\nAt the time of the assay, the growth medium was discarded and the cells were in humidified atmosphere (37° C., 5% CO2) for 1 hour with 50 μl of loading buffer consisting of 1.5 μM Fluo-4 AM and […] probenicid (Sigma-Aldrich, St. Louis, Mo., US) in DMEM.\nAfterwards, the 96-well plate was washed 5 times with 100 μl of assay buffer (130 mM NaCl, 5 mM KCl, 10 mM HEPES, 2 mM CaCl2, and 5 mM dextrose, pH 7.4) per well, using an automated plate washer (BioTek). The plate was further incubated for 30 minutes at room temperature in the dark to allow for complete de-esterification of the Fluo-4. Afterwards the plate was washed 5 times with 100 μl of assay buffer per well, and reconstituted with 100 μl of assay buffer per well.\nFor assay reading, the plate was placed in a Fluorometric Imaging Plate Reader (FLIPR) (FLIPR-TETRA™, Molecular Devices, Sunnyvale, Calif., US), and receptor activation was initiated by addition of 100 μl of a twofold concentrated agonist stock solution (to give the desired agonist end concentration when added to the 100 microliter assay buffer volume), which was prepared in assay buffer.\nFluorescence was continuously monitored for 20 seconds to give a signal baseline (averaged to give F0) prior to agonist addition and for 120 seconds after agonist addition. The change in signal divided by F0 gives ΔF/F0 indicated in the table, with ΔF being the maximum signal occurring within the 120 seconds minus the minimum signal (occurring within the 120 seconds after agonist addition.\nAll data was collected from at least two independent experiments each carried out in triplicate.\nA concentration-response analysis was performed and EC50 values were calculated by nonlinear regression using the function f(x)=(a−d)/(1+(x/C)^nh)+d; with a=minimum signal, d=maximum signal, nh=hill coefficient, C=EC50. , and x=agonist concentration. EC50 is the molar concentration of an agonist which produces 50% of the maximum possible effective response for that agonist.\n(§1) The obtained calcium signals were corrected for the response of cells expressing only the G Proteinα subunit (Gα16-gustducin44) and normalized to the fluorescence of cells prior to the stimulus using ΔF/F0 (Fmax−Fmin/F0).\nTo confirm that the cell line formed in example 2c stably expresses the bitter taste receptor TAS2R44, a concentration-response curve for saccharin, a known agonist of TAS2R44, was generated. […] The standard deviation (+/−STD) is also indicated.\nThe intracellular calcium response following addition of steviol glycosides (stevioside, rebaudioside A) was determined in HEK293T cell line stably expressing Gα16-gustducin44 and TAS2R44 formed as described in example 2a."}, "[2]": {"system": "HEK293T Gα16gustducin44 cells (that do not express TAS2R44)", "assay": "Fluo-4 calcium assay, negative control cells without TAS2R44", "details": "for change in signal in the negative control: cells expressing only Gα16-gustducin44", "description": "as §1\nAs a negative control to determine unspecific signals, each of the applied concentrations of each F(I) steviol glycoside was applied to cells expressing only Gα16gustducin44."}, "[3]": {"molecular_target": "T1, TAS2R44", "assay": "Fluo-4 calcium assay, antagonists of the response of TAS2R44 to steviol glycosides", "details": "without bitter blocker", "description": "All cells were HEK293T cells stably expressing Gα16-gustducin44, or expressing Gα16-gustducin44 and TAS2R44.\nThe method was carried out as described in example 3 subject to the following modifications:\nThe samples were tested with and without candidate bitter blocker and the signals were compared. The candidate bitter blocker was dissolved in dimethylsulfoxide (DMSO), and a negative control with equivalent DMSO concentration (0.02%) was performed accordingly to exclude a potential inhibitory effect of the solvent. Furthermore, a control with the relevant steviol glycoside and DMSO (0.02%) was performed accordingly (see table in example 5).\nAll data was calculated as ΔF/F0 and the standard deviation (STD) is indicated in each table, see results for the identified bitter blocker 4-(2,2,3-trimethyl-cyclopentyl)-butanoic acid below."}}, "note": "Peptide text beside a SMILES is read from it.", "data": [{"smiles": "COC(=O)[C@H](Cc1ccccc1)NC(=O)[C@@H](N)CC(=O)O", "note": "[aspartame] (H-Asp-Phe-OMe)", "values": [{"measurement": "agonist for TAS2R44", "setting": "[1]; sweeteners with a known bitter off-note", "result": "not to be agonists"}]}, {"smiles": "C=C1C[C@@]23CC[C@H]4[C@@](C)(CCC[C@@]4(C)C(=O)O[C@@H]4O[C@H](CO)[C@@H](O)[C@H](O)[C@H]4O)[C@@H]2CC[C@]1(O[C@@H]1O[C@H](CO)[C@@H](O)[C@H](O[C@@H]2O[C@H](CO)[C@@H](O)[C@H](O)[C@H]2O)[C@H]1O[C@@H]1O[C@H](CO)[C@@H](O)[C@H](O)[C@H]1O)C3", "note": "[rebaudioside A]", "values": [{"measurement": "change in signal in the negative control", "setting": "[2]", "result": "No significant change"}, {"measurement": "Neg. Control ΔF/F0", "setting": "[2]; rebaudioside A 0.004 mM", "result": 0.061}, {"measurement": "Neg. Control ΔF/F0", "setting": "[2]; rebaudioside A 0.008 mM", "result": 0.0635}, {"measurement": "Neg. Control ΔF/F0", "setting": "[2]; rebaudioside A 0.016 mM", "result": 0.054}, {"measurement": "Neg. Control ΔF/F0", "setting": "[2]; rebaudioside A 0.031 mM", "result": 0.063}, {"measurement": "Neg. Control ΔF/F0", "setting": "[2]; rebaudioside A 0.063 mM", "result": 0.0685}, {"measurement": "Neg. Control ΔF/F0", "setting": "[2]; rebaudioside A 0.125 mM", "result": 0.087}, {"measurement": "Neg. Control ΔF/F0", "setting": "[2]; rebaudioside A 0.625 mM", "result": 0.1115}, {"measurement": "Neg. Control ΔF/F0", "setting": "[2]; rebaudioside A 2.500 mM", "result": 0.153}, {"measurement": "Neg. Control ΔF/F0", "setting": "[2]; rebaudioside A 5.000 mM", "result": 0.208}, {"measurement": "rebaudioside positive control average ΔF/F0", "setting": "[3]; 0.7 mM rebaudioside A (EC50) alone", "result": 0.4625}, {"measurement": "EC50", "setting": "[1]", "result": 700, "unit": "µM"}, {"measurement": "calcium signaling upon addition", "setting": "[1]", "result": "significant increase"}, {"measurement": "TAS2R44 ΔF/F0", "setting": "[1]; rebaudioside A 0.004 mM", "result": 0.07687}, {"measurement": "TAS2R44 ΔF/F0", "setting": "[1]; rebaudioside A 0.008 mM", "result": 0.07938}, {"measurement": "TAS2R44 ΔF/F0", "setting": "[1]; rebaudioside A 0.016 mM", "result": 0.0975}, {"measurement": "TAS2R44 ΔF/F0", "setting": "[1]; rebaudioside A 0.031 mM", "result": 0.1681}, {"measurement": "TAS2R44 ΔF/F0", "setting": "[1]; rebaudioside A 0.063 mM", "result": 0.1619}, {"measurement": "TAS2R44 ΔF/F0", "setting": "[1]; rebaudioside A 0.125 mM", "result": 0.32}, {"measurement": "TAS2R44 ΔF/F0", "setting": "[1]; rebaudioside A 0.625 mM", "result": 0.7025}, {"measurement": "TAS2R44 ΔF/F0", "setting": "[1]; rebaudioside A 2.500 mM", "result": 0.7819}, {"measurement": "TAS2R44 ΔF/F0", "setting": "[1]; rebaudioside A 5.000 mM", "result": 0.6262}]}, {"smiles": "O=C1NS(=O)(=O)c2ccccc21", "note": "[saccharin]", "values": [{"measurement": "change in signal in the negative control", "setting": "[2]", "result": "did not show any significant change in signal"}, {"measurement": "Neg. Control ΔF/F0", "setting": "[2]; saccharin 10.0000 mM", "result": 0.020}, {"measurement": "TAS2R44 ΔF/F0", "setting": "[1]; saccharin 0.0391 mM", "result": 0.024}, {"measurement": "TAS2R44 ΔF/F0", "setting": "[1]; saccharin 0.0781 mM", "result": 0.075}, {"measurement": "TAS2R44 ΔF/F0", "setting": "[1]; saccharin 0.1563 mM", "result": 0.181}, {"measurement": "TAS2R44 ΔF/F0", "setting": "[1]; saccharin 0.3125 mM", "result": 0.388}, {"measurement": "TAS2R44 ΔF/F0", "setting": "[1]; saccharin 0.6250 mM", "result": 0.668}, {"measurement": "TAS2R44 ΔF/F0", "setting": "[1]; saccharin 1.2500 mM", "result": 0.947}, {"measurement": "TAS2R44 ΔF/F0", "setting": "[1]; saccharin 2.5000 mM", "result": 1.150}, {"measurement": "TAS2R44 ΔF/F0", "setting": "[1]; saccharin 5.0000 mM", "result": 1.258}, {"measurement": "TAS2R44 ΔF/F0", "setting": "[1]; saccharin 10.0000 mM", "result": 1.354}]}, {"smiles": "C=C1C[C@@]23CC[C@H]4[C@@](C)(CCC[C@@]4(C)C(=O)O[C@@H]4O[C@H](CO)[C@@H](O)[C@H](O)[C@H]4O)[C@@H]2CC[C@]1(O[C@@H]1O[C@H](CO)[C@@H](O)[C@H](O)[C@H]1O[C@@H]1O[C@H](CO)[C@@H](O)[C@H](O)[C@H]1O)C3", "note": "[stevioside]", "values": [{"measurement": "change in signal in the negative control", "setting": "[2]", "result": "No significant change"}, {"measurement": "Neg. Control ΔF/F0", "setting": "[2]; stevioside 0.004 mM", "result": 0.061}, {"measurement": "Neg. Control ΔF/F0", "setting": "[2]; stevioside 0.008 mM", "result": 0.059}, {"measurement": "Neg. Control ΔF/F0", "setting": "[2]; stevioside 0.016 mM", "result": 0.059}, {"measurement": "Neg. Control ΔF/F0", "setting": "[2]; stevioside 0.031 mM", "result": 0.074}, {"measurement": "Neg. Control ΔF/F0", "setting": "[2]; stevioside 0.063 mM", "result": 0.065}, {"measurement": "Neg. Control ΔF/F0", "setting": "[2]; stevioside 0.125 mM", "result": 0.063}, {"measurement": "Neg. Control ΔF/F0", "setting": "[2]; stevioside 0.625 mM", "result": 0.062}, {"measurement": "Neg. Control ΔF/F0", "setting": "[2]; stevioside 2.500 mM", "result": 0.010}, {"measurement": "Neg. Control ΔF/F0", "setting": "[2]; stevioside 5.000 mM", "result": 0.435}, {"measurement": "stevioside positive control average ΔF/F0", "setting": "[3]; 2.2 mM stevioside (EC50) alone", "result": 0.733}, {"measurement": "EC50", "setting": "[1]", "result": 2200, "unit": "µM"}, {"measurement": "calcium signaling upon addition", "setting": "[1]", "result": "significant increase"}, {"measurement": "TAS2R44 ΔF/F0", "setting": "[1]; stevioside 0.004 mM", "result": 0.082}, {"measurement": "TAS2R44 ΔF/F0", "setting": "[1]; stevioside 0.008 mM", "result": 0.079}, {"measurement": "TAS2R44 ΔF/F0", "setting": "[1]; stevioside 0.016 mM", "result": 0.096}, {"measurement": "TAS2R44 ΔF/F0", "setting": "[1]; stevioside 0.031 mM", "result": 0.112}, {"measurement": "TAS2R44 ΔF/F0", "setting": "[1]; stevioside 0.063 mM", "result": 0.136}, {"measurement": "TAS2R44 ΔF/F0", "setting": "[1]; stevioside 0.125 mM", "result": 0.230}, {"measurement": "TAS2R44 ΔF/F0", "setting": "[1]; stevioside 0.625 mM", "result": 0.451}, {"measurement": "TAS2R44 ΔF/F0", "setting": "[1]; stevioside 2.500 mM", "result": 0.677}, {"measurement": "TAS2R44 ΔF/F0", "setting": "[1]; stevioside 5.000 mM", "result": 1.155}]}]}
